Earlier results on 4 compounds are cited in US8470831B2, “Acrylamido derivatives useful as inhibitors of the mitochondrial permeability transition” (Cogenia SRL, priority 2008, dated 2013).

The test system of data set [1] is rat liver mitochondrial membranes.
For data set [2] the following is noted: mdx and Scgd-/- mice.
The conditions of data set [3]: mouse, myocardial infarction and reperfusion injury.
The conditions of data set [4]: rat, transient focal cerebral ischemia.
For data set [5] the following is noted: patients, one month treatment.
For data set [6] the following is noted: rat, TNF-α-dependent acute inflammatory hepatitis.

`COc1ccc(CN2CCN(CCCSc3cc(C(C)(C)C)c(O)c(C(C)(C)C)c3)CC2)c(OC)c1OC` [Compound S-15176, N-[(3,5-di-tert-butyl-4-hydroxy-1-thiophenyl)]-3-propyl-N′-(2,3,4-trimethoxybenzyl)piperazine]: the “mitochondrial membrane depolarization and respiration uncoupling” value in data set [1] was “induces depolarization of the mitochondrial membrane and respiration uncoupling”.
As to `C/C=C/C[C@@H](C)[C@@H](O)[C@H]1C(=O)N[C@@H](CC)C(=O)N(C)[C@H](C)C(=O)N(CC)[C@@H](C(C)C)C(=O)N[C@@H](C(C)C)C(=O)N(C)[C@@H](CC(C)C)C(=O)N[C@@H](C)C(=O)N[C@H](C)C(=O)N(C)[C@@H](CC(C)C)C(=O)N(C)[C@@H](CC(C)C)C(=O)N(C)[C@@H](C(C)C)C(=O)N1C` [Debio-025], the “mitochondrial swelling and necrotic disease” value in data set [2] was “reduced mitochondrial swelling and necrotic disease”. Besides, the infarct size entry in data set [3] is reported as “reduced infarct size”.
Take `C/C=C/C[C@@H](C)[C@@H](O)[C@H]1C(=O)N[C@@H](CC)C(=O)N(C)CC(=O)N(C)[C@@H]([C@@H](C)CC)C(=O)N[C@@H](C(C)C)C(=O)N(C)[C@@H](CC(C)C)C(=O)N[C@@H](C)C(=O)N[C@H](C)C(=O)N(C)[C@@H](CC(C)C)C(=O)N(C)[C@@H](CC(C)C)C(=O)N(C)[C@@H](C(C)C)C(=O)N1C` [NIM811]: the protection in data set [4] is 40%.
For the compound Cyclosporin A, the mitochondrial function entry in data set [5] is given as “amelioration of mitochondrial function”. In data set [6], the liver damage entry is on record as “strongly reduces liver damage”.
